Data published in patent US4421912A, “Cephalosporin derivatives” (Takeda Chemical Industries, Ltd., priority 1973, dated 1983).
In brackets after ≈: the same amount, converted by molar mass. Read-outs that look alike come from different tables or passages of the source.

Experiments:
[1] = test system: P. vulgaris Eb-57; assay: Antibacterial spectra, agar dilution method; format: cell-based; details: Proteus vulgaris
Source text: |(mcg/ml., agar dilution method)

[2] = test system: P. vulgaris IFO 3988; assay: Antibacterial spectra, agar dilution method; format: cell-based; details: Proteus vulgaris
Source text: (§1) |(mcg./ml., agar dilution method)

[3] = test system: E. coli T-7; assay: Antibacterial spectra, agar dilution method; format: cell-based; details: Escherichia coli
Source text: as §1

[4] = test system: E. coli 0-111; assay: Antibacterial spectra, agar dilution method; format: cell-based
Source text: (§2) (mcg/ml., agar dilution method)
as §2
(§3) (mcg/ml, agar dilution method)
(§4) (mcg./ml., agar dilution method)

[5] = test system: S. aureus 1840; assay: Antibacterial spectra, agar dilution method; format: cell-based
Source text: as §2, §2, §3, §4

[6] = test system: S. aureus 209P; assay: Antibacterial spectra, agar dilution method; format: cell-based; details: Staphylococcus aureus
Source text: as §2, §2, §3, §4

[7] = test system: E. coli NIHJ JC-2; assay: Antibacterial spectra, agar dilution method; format: cell-based; details: Escherichia coli
Source text: as §2, §2, §3, §4

[8] = test system: P. vulgaris Eb-58; assay: Antibacterial spectra, agar dilution method; format: cell-based; details: Proteus vulgaris, EB58, tables in Examples 13 and 16
Source text: as §2, §3

[9] = test system: K. pneumoniae DT; assay: Antibacterial spectra, agar dilution method; format: cell-based; details: Klebsiella pneumoniae
[10] = test system: Escherichia coli 0111; assay: Protective Effect on Infected Mice; format: in vivo; details: Escherichia coli, 0111, sc, 168 h, male ICR/SLC mice, i.p. E. coli 0111, single subcutaneous dose immediately after challenge, 7 days
Source text: Protective Effect (ED50 * , mg/kg) on Infected Mice
*Test animals: male mice (ICR/SLC) 5 mice per group per single dose
Infection: intraperitoneally with Escherichia coli 0111
Administration: a single subcutaneous dose immediately after challenge
Observation period: 7 days
*Test animals: male mice (ICR/SLC) 5 mice per group single dose

[11] = test system: P. morganii Eb53; assay: Antibacterial spectra, agar dilution method; format: cell-based; details: for MIC: Morganella morganii
Source text: as §3, §4

[12] = EB57, P. vulgaris Eb-57, agar dilution method, table in Example 10, read-out: Antibacterial spectra
[13] = IFO3988, P. vulgaris IFO 3988, agar dilution method, Table 11, read-out: Antibacterial spectra
[14] = T7, E. coli T-7, agar dilution method, Table 11, read-out: Antibacterial spectra
[15] = Escherichia coli, 0111, E. coli 0-111, Table 11
[16] = Escherichia coli, 0111, E. coli 0-111, tables in the Examples
[17] = Staphylococcus aureus, 1840, read-out: Antibacterial spectra, S. aureus 1840, Table 11
[18] = Staphylococcus aureus, 1840, read-out: Antibacterial spectra, S. aureus 1840, tables in the Examples
[19] = 209P, read-out: Antibacterial spectra, S. aureus 209P, Table 11
[20] = S. aureus 209P, tables in the Examples, read-out: Antibacterial spectra
[21] = NIHJJC2, read-out: Antibacterial spectra, E. coli NIHJ JC-2, Table 11
[22] = NIHJJC2, read-out: Antibacterial spectra, E. coli NIHJ JC-2, tables in the Examples
[23] = Table 12, read-out: Protective Effect (ED50) on Infected Mice
[24] = P. morganii Eb53, agar dilution method, Table 11, read-out: Antibacterial spectra
[25] = P. morganii Eb53, agar dilution method, table in Example 16
[26] = EB53, read-out: Antibacterial spectra
[27] = T7, read-out: Antibacterial spectra
[28] = Staphylococcus aureus, S. aureus 1840, Table 11, read-out: Antibacterial spectra
[29] = 209P, read-out: Antibacterial spectra, S. aureus 209P, tables in the Examples

Structure (SMILES)	MIC [2, 13] [µg/mL]	MIC [3, 14] [µg/mL]	MIC [4, 15] [µg/mL]	MIC [5, 17] [µg/mL]	MIC [5, 18] [µg/mL]	MIC [6, 19] [µg/mL]	MIC [7, 21] [µg/mL]	MIC ([9]; Table 11) [µg/mL]	MIC ([9]; tables in the Examples) [µg/mL]	ED50 ([10]; Table 13, read-out: ED50) [mg/kg]	ED50 ([10]; Table 14, read-out: ED50) [mg/kg]	MIC [11, 24] [µg/mL]	MIC [11, 26] [µg/mL]	other results
O=C(Cc1cccs1)N[C@@H]1C(=O)N2C(C(=O)[O-])=C(C[n+]3ccccc3)CS[C@H]12 [Cephaloridine, reference compound]	6.25 (≈ 15 µM)	> 100	1.56 (≈ 3.75 µM)	0.39 (≈ 0.939 µM)	0.39 (≈ 0.939 µM)	≤ 0.2	3.13 (≈ 7.53 µM)	1.56 (≈ 3.75 µM)	3.12 (≈ 7.52 µM)	1.94	3.57	> 100	–	MIC [1, 12]: > 100 µg/mL; MIC [4, 16]: 3.12 µg/mL (≈ 7.52 µM); MIC [6, 20]: 0.05 µg/mL (≈ 0.12 µM); MIC [7, 22]: 6.25 µg/mL (≈ 15 µM); MIC [8]: 12.5 µg/mL (≈ 30.1 µM); ED50 [10, 23]: 2.81 mg/kg; Antibacterial spectra [11, 25]: > 100 µg/mL
CN(C)CCSc1nnc(SCC2=C(C(=O)O)N3C(=O)C(NC(=O)Cc4csc(N)n4)C3SC2)s1 (stereo not shown) [Compound 9]	–	50 (≈ 87.1 µM)	0.39 (≈ 0.68 µM)	0.78 (≈ 1.36 µM)	–	≤ 0.2	–	≤ 0.2	–	–	–	–	< 0.2	MIC ([2]; IFO3988, read-out: Antibacterial spectra): 6.25 µg/mL (≈ 10.9 µM); MIC ([7]; NIHJJC2, E. coli NIHJ JC-2, Table 11, read-out: Antibacterial spectra): 1.56 µg/mL (≈ 2.72 µM); ED50 [10, 23]: 0.812 mg/kg
Nc1nc(CC(=O)NC2C(=O)N3C(C(=O)O)=C(CSc4nnc(SCCS(=O)(=O)O)s4)CSC23)cs1 (stereo not shown) [Compound 12]	≤ 0.2	50 (≈ 81.9 µM)	≤ 0.2	1.56 (≈ 2.55 µM)	–	0.39 (≈ 0.639 µM)	0.78 (≈ 1.28 µM)	≤ 0.2	–	< 0.625	–	25 (≈ 40.9 µM)	–	–
Nc1nc(CC(=O)NC2C(=O)N3C(C(=O)O)=C(CSc4nnc(NCCO)s4)CSC23)cs1 (stereo not shown) [Compound 17]	0.39 (≈ 0.736 µM)	–	≤ 0.2	–	–	0.39 (≈ 0.736 µM)	0.39 (≈ 0.736 µM)	≤ 0.2	–	< 0.625	–	–	0.78 (≈ 1.47 µM)	MIC [3, 27]: 12.5 µg/mL (≈ 23.6 µM); MIC [5, 28]: 3.13 µg/mL (≈ 5.91 µM)
Cn1nnnc1SCC1=C(C(=O)O)N2C(=O)C(NC(=O)Cc3csc(N)n3)C2SC1 (stereo not shown) [Example 16, sodium 7-[2-(2-aminothiazol-4-yl)acetamido]-3-(1-methyltetrazol-5-yl)thiomethyl-3-cephem-4-carboxylate]	–	–	–	–	0.78	–	–	–	< 0.1	–	0.89	–	–	MIC [4, 16]: 0.2 µg/mL; MIC [6, 29]: 0.39 µg/mL; MIC [7, 22]: 0.39 µg/mL; MIC [8]: 0.39 µg/mL; MIC ([11]; P. morganii Eb53, agar dilution method, table in Example 16, read-out: Antibacterial spectra): 3.12 µg/mL
Nc1nc(CC(=O)NC2C(=O)N3C(C(=O)O)=C(CSc4nnc(CC(=O)O)s4)CSC23)cs1 (stereo not shown) [Compound 19, disodium 7-[2-(2-aminothiazol-4-yl)acetamido]-3-(2-carboxymethyl-1,3,4-thiadiazol-5-yl)thiomethyl-3-cephem-4-carboxylate]	≤ 0.2	25	≤ 0.2	–	–	0.78	0.78	≤ 0.2	–	–	–	–	0.78	MIC [5, 28]: 3.13 µg/mL; ED50 [10, 23]: < 0.625 mg/kg
CC(=O)OCC1=C(C(=O)O)N2C(=O)C(NC(=O)Cc3csc(N)n3)C2SC1 (stereo not shown) [Example 10, sodium 7-[2-(2-aminothiazol-4-yl)acetamido]-3-acetoxymethyl-3-cephem-4-carboxylat]	–	–	–	–	1.56	–	–	–	< 0.78	–	–	–	–	MIC ([1]; EB57, read-out: Antibacterial spectra): < 0.78 µg/mL; MIC [6, 29]: < 0.78 µg/mL; MIC ([7]; NIHJJC2, E. coli NIHJ JC-2, tables in the Examples, read-out: Antibacterial spectra): 1.56 µg/mL
CN(C)CCNc1nnc(SCC2=C(C(=O)O)N3C(=O)C(NC(=O)Cc4csc(N)n4)C3SC2)s1 (stereo not shown) [Compound 18]	1.56 (≈ 2.8 µM)	–	≤ 0.2	–	–	1.56 (≈ 2.8 µM)	0.78 (≈ 1.4 µM)	≤ 0.2	–	< 0.625	–	–	1.56 (≈ 2.8 µM)	MIC [3, 27]: 6.25 µg/mL (≈ 11.2 µM); MIC [5, 28]: 3.13 µg/mL (≈ 5.62 µM)
Cn1cnnc1SCC1=C(C(=O)O)N2C(=O)C(NC(=O)Cc3csc(N)n3)C2SC1 (stereo not shown) [Compound 39]	–	25 (≈ 53.5 µM)	< 0.05	1.56 (≈ 3.34 µM)	–	0.78 (≈ 1.67 µM)	0.2 (≈ 0.428 µM)	0.1 (≈ 0.214 µM)	–	–	0.73	25 (≈ 53.5 µM)	–	–
Cc1nnc(SCC2=C(C(=O)O)N3C(=O)[C@@H](NC(=O)Cn4cnnn4)[C@H]3SC2)s1 [Cephazolin, reference compound]	6.25 (≈ 13.8 µM)	50 (≈ 110 µM)	0.78 (≈ 1.72 µM)	0.78 (≈ 1.72 µM)	1.56 (≈ 3.43 µM)	≤ 0.2	1.56 (≈ 3.43 µM)	1.56 (≈ 3.43 µM)	1.56 (≈ 3.43 µM)	–	3.1	100 (≈ 220 µM)	–	MIC [1, 12]: 50 µg/mL (≈ 110 µM); MIC [4, 16]: 1.56 µg/mL (≈ 3.43 µM); MIC [6, 29]: 0.1 µg/mL (≈ 0.22 µM); MIC [6, 20]: 0.01 µg/mL (≈ 0.022 µM); MIC [7, 22]: 1.56 µg/mL (≈ 3.43 µM); MIC [8]: 6.25 µg/mL (≈ 13.8 µM); Antibacterial spectra [11, 25]: 100 µg/mL
Nc1nc(CC(=O)NC2C(=O)N3C(C(=O)O)=C(CSc4nnc(SCC(=O)O)s4)CSC23)cs1 (stereo not shown) [Compound 15]	≤ 0.2	25 (≈ 44.6 µM)	≤ 0.2	1.56 (≈ 2.78 µM)	–	0.78 (≈ 1.39 µM)	0.78 (≈ 1.39 µM)	≤ 0.2	–	< 0.625	–	3.13 (≈ 5.58 µM)	–	–
NC(=O)Cc1nnc(SCC2=C(C(=O)[O-])N3C(=O)C(NC(=O)Cc4csc(N)n4)[C@H]3SC2)s1.[Na+] (stereo partly shown) [Compound 21, sodium 7-[2-(2-aminothiazol-4-yl)acetamido]-3-(2-carbamoylmethyl-1,3,4-thiadiazol-5-yl)thiomethyl-3-cephem-4-carboxylate]	≤ 0.2	–	≤ 0.2	1.56	–	≤ 0.2	0.39	≤ 0.2	–	–	–	–	0.78	MIC [3, 27]: 25 µg/mL; ED50 [10, 23]: < 0.625 mg/kg
NC(=O)CSc1nnc(SCC2=C(C(=O)[O-])N3C(=O)C(NC(=O)Cc4csc(N)n4)[C@H]3SC2)s1.[Na+] (stereo partly shown) [Compound 16, sodium 7-[2-(2-aminothiazol-4-yl)acetamido]-3-(2-carbamoylmethylthio-1,3,4-thiadiazol-5-yl)thiomethyl-3-cephem-4-carboxylate]	≤ 0.2	–	≤ 0.2	0.78	–	≤ 0.2	0.39	≤ 0.2	–	< 0.625	–	–	1.56	MIC [3, 27]: 12.5 µg/mL
Nc1nc(CC(=O)NC2C(=O)N3C(C(=O)O)=C(CSc4nncs4)CSC23)cs1 (stereo not shown) [Example 13, sodium 7-[2-(2-aminothiazol-4-yl)-acetamido]-3-(1,3,4-thiadiazol-2-yl)thiomethyl-3-cephem-4-carboxylate]	–	–	–	–	< 0.78	–	–	–	< 0.78	–	2.38	–	–	MIC [4, 16]: < 0.78 µg/mL; MIC [6, 29]: < 0.78 µg/mL; MIC [8]: < 0.78 µg/mL
